Source: US5260189A, “Synthetic HIV-like peptides their compositions and uses” (Immunodiagnostics, Inc., priority 1992, dated 1993)
Entries after “also recorded” stand apart in the source; their conditions may differ.

Assays:
antibodies to HIV-1 [1] = assay: EIA of peptide-protein conjugates coated on polystyrene microtiter plates, human sera; format: binding
Description: (§1) The free peptides or peptide-protein conjugates of FIGS. 1-13 were initially screened for immunoreactivity by coating each well of polystyrene microtiter EIA plates (Costar, Cambridge, Mass., U.S.A.) with 0.2 ml amounts of concentrations of 5-50 micrograms/ml peptide in Tris buffer, 10 mM, pH 8.0, at 4° C. overnight. Peptides or peptide-protein conjugates showing immunoreactivity by EIA were then further diluted for coating to determine the minimal concentrations required that allowed maximal immunoreactivity with antibodies to HIV, and minimal nonspecific reactivity with normal sera. The EIA tests were performed as follows: The coating solution was removed from each well and the wells were blocked at 37° C. for 30 minutes with a solution of 50 mM phosphate, 100 mM NaCl, pH 7.4, 1% BSA, 0.5% gelatin. The wells were then aspirated dry with a microtiter plate washer and washed 3 times with a solution of 50 mM phosphate, 100 mM NaCl, 0.05% Tween 20, pH 7.4 (PBST). A 1:101 dilution (in PBST with 1% BSA, 1% NRS) of the primate serum to be tested was then added as 0.2 ml to each washed well and the plates were incubated at 37° C. for 30 minutes. The plates were then washed×3 with PBST, and 0.2 ml amounts of a 1:2000 dilution of goat anti-human (GAH) peroxidase enzyme conjugate (Organon Teknika, Cappel, Melvern, Pa., U.S.A.) that recognized human IgG, IgA, and IgM were added to each well, and the plates were incubated for 30 minutes at 37° C. The plates were then washed×3 with PBST and incubated with 0.2 ml/well substrate consisting of 0.1M citric acid pH 5.2, 0.1 mg/ml o-phenylene diamine, 0.01% H2 O2, at room temperature in the dark for 10 minutes. Reactions were stopped with 50 microliters of 4N H2 SO4, and the color development was quantitated in a Multiscan plate reader at A492. In each series of experiments positive and negative controls were included, and all tests were done in duplicate or quadruplicate. Most peptides and peptide conjugates were initially screened against a 1:101 dilution of pools of HIV positive or HIV negative sera, and the same serum pool was used to allow quantitative comparison of immunoreactivity of different free peptides or peptide-protein conjugates.
(§2) The peptides in FIGS. 1 and 5 were synthesized as described in Example 1 and conjugated to KLH or BSA as described in Example 2. These peptide-protein conjugates were coated to polystyrene microtiter plates all at a concentration 10 micrograms peptide/ml and evaluated for immunoreactivity as described in Example 3, using a 1:101 dilution of a pool of sera (HIV+/SIV+, respectively) containing antibodies to HIV-1 (FIG. 1) or to HIV-2 (FIG. 5), as well as pooled serum (HIV-/SIV-, respectively) containing no antibodies to HIV-1 or HIV-2. […] Since sera from patients infected with HIV-2 are relatively unavailable in the United States, the immunoreactivity of HIV-2 synthetic peptides was assessed using serum from macaques infected with SIV, obtained from the University of Washington Primate Center, Seattle, Wash., U.S.A. The AA sequence of SIV is nearly identical to HIV-2 in the region of the peptides synthesized (see Myers et al., Human Retroviruses and AIDS, 1988. A compilation of nucleic acid and amino acid sequences. Los Alamos National Laboratory, Los Alamos, N. Mex., 87545, USA).

antibodies to HIV-1 [2] = assay: Rapid HIV-1 EIA with peptide reagents immobilized on latex in rapid test device; format: binding, human; settings: passive adsorption
Description: A test device for performing rapid tests in less than 15 minutes was prepared as illustrated in FIGS. 14 and 15. Referring to FIGS. 14 and 15, the device comprises a plastic slide 10 (approximately 1 inch wide by 3/16 inch thick by 31/4 inches long) having a plurality of funnel-like wells 12, each having a capacity of approximately 200 microliters, an upper inflow tract rim 14 diameter of approximately 9 mm and a lower outflow tract 16 diameter of approximately 2 mm. The undersurface of the outflow tract 16 is designed so as to provide a smooth even contact with a membrane filter 18 placed next to it in the apparatus. The membrane filter separates reactants passing through it by size, retaining those particles above a predetermined size, such as above 0.22 microns, or above 0.45 microns in size (depending upon the specific filter chosen), through other filters placed into the apparatus might separate by binding or affinity (i.e. nitrocellulose, glass). […]
The mixture was shaken gently a room temperature for 1 hour, and then washed 3 times by centrifugation at 9,000×g for 10 minutes, removal of supernate, and resuspension of the pellet in a 12-14 ml volume of deionized water, pH 4.5. […] It was determined that this stock solution of latex coated with peptide-BSA conjugate could be diluted 1:10-1:30 with latex diluent buffer for use in the rapid EIA described below. […]

antibodies to SIV/HIV-2 = assay: EIA of peptide-protein conjugates coated on polystyrene microtiter plates, macaque sera; format: binding, rhesus macaque (Macaca mulatta)
Excerpt: For all of the immunoassays employing human serum, the serum samples were obtained from the King County Health Department, Seattle, Wash., U.S.A., and each serum had been characterized as positive or negative with respect to antibodies to HIV-1, as determined by testing with the commercially licensed Genetic Systems and or DuPont EIA tests. Serum from rhesus macaque monkeys (Macaca mulatta) was obtained from the University of Washington, Seattle, Wash., U.S.A., and had been characterized by a SIV whole virus lysate EIA as either containing or not containing antibodies to SIV which is nearly identical in sequence to HIV-2 in the region of the peptide epitopes studied.
as §1, §2

antibodies to HIV-2 = assay: Rapid EIA with latex reagents to detect antibodies to HIV-2; format: binding
Description: A 125 microliter volume of 10% latex was added to a 375 microliter volume of deionized water, and mixed with an equal volume (0.5 ml) of 1M carbodiimide, pH 4.5. The mixture was shaken gently a room temperature for 1 hour, and then washed 3 times by centrifugation at 9,000×g for 10 minutes, removal of supernate, and resuspension of the pellet in a 12-14 ml volume of deionized water, pH 4.5. The free peptides at 1 mg/ml concentration (500 micrograms/ml of each peptide 4S36 and 5S70), or the peptide-BSA conjugate of peptides 4S36 and 5S70 at 500 micrograms/ml were added to the final washed activated latex pellet (1 ml volume of peptide containing solution per 125 microliters original volume of latex). […] It was determined that this stock solution of latex coated with peptide-BSA conjugate could be diluted 1:10-1:30 with latex diluent buffer for use in the rapid EIA described below.
Serum specimens were diluted 1:8 for the rapid EIA in a serum diluent buffer consisting of 0.03M Tris, pH 8 containing 0.8% NaCl, 0.05% NaN3, 0.05% Triton x-100. […] The reaction was stopped after 3-4 minutes by adding a drop of 4N H2 SO4, and the test device could be retained as a permanent record of positive (blue-purple color) or negative (white membrane) until the results were recorded. […]

Sequence | reactivity with sera not containing antibodies to HIV-1 (FIGS. 10C, 11) (antibodies to HIV-1 [1]; BSA-SMCC conjugate, 85-87 negative human sera) | number of positive samples giving A492 less than 1.0 (antibodies to HIV-1 [1]; BSA-SMCC conjugate, 98 positive human sera (FIGS. 11A, 11B)) | positive/negative ratios (FIG. 9) (antibodies to HIV-1 [1]; BSA-peptide conjugate, polystyrene plastic type 1 (low reactivity with normal human sera)) | performance of free peptide passively adsorbed to latex (antibodies to HIV-1 [2]) | immunoreactivity with SIV/HIV-2 antibodies (FIG. 5) (antibodies to SIV/HIV-2; C-terminal BSA-SMCC conjugates, 10 micrograms peptide/ml coating, 1:101 dilution of pooled SIV+ / SIV- macaque sera) | discrimination of positive from negative macaque sera (FIG. 7) (antibodies to SIV/HIV-2; peptide-BSA conjugates) | discrimination of HIV-2+ from HIV-2- serum samples, rapid EIA (antibodies to HIV-2)
VWGCSGKLICTTAVPGC [4S36, unnatural variant of HIV-1 gp41 peptide 2S09] | acceptably low | none | ≥ 20 | produced an immunoreactive reagent |  |  | 
ARLNSWGCAFRQVCHGC [2S25] |  |  |  |  | Significant immunoreactivity; also recorded: best immunoreactivity; also recorded: maximally immunoreactive | most favorable performances | capable of discriminating
